According to patent US9982005B2, “Macrolides and methods of their preparation and use” (President and Fellows of Harvard College, priority 2013, dated 2018):
Converted amounts (≈) assume the structure as drawn. Like-named read-outs stand apart in the source and are kept apart here.

Legend:
Format in all cases: cell-based
H. influenzae strains = assay: MIC against H. influenzae strains (Table M8); details: Haemophilus influenzae
Outline: (§1)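 CLSI procedure, broth dilution format, endpoint = MIC. Azithromycin as control macrolide.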

EC878 E. coli tolC = assay: broth dilution MIC, E. coli EC878; details: Escherichia coli
From the text: (§2) We have collected MIC data for a total of 50 novel macrolides that this platform has produced against over 21 unique strains of B. subtilis, E. coli, S. aureus, S. pneumoniae, and H. influenzae, including several multidrug-resistant strains, with a special focus on macrolide resistant mechanisms (vide supra). Azithromycin was included as a control macrolide. CLSI standard procedures for broth dilution MIC determination were used. […] These genotypes can be constitutive or inducible. The finding that C4-epi (unnatural) isomers of the “azaketolide” macrolide class have enhanced activities relative to C4 natural isomers is very exciting.

BS1725 B. subtilis ermC = assay: broth dilution MIC, B. subtilis BS1725; details: Bacillus subtilis
From the text: as §2

EC882 E. coli imp = assay: broth dilution MIC, E. coli EC882; details: Escherichia coli
From the text: as §2

S. pneumoniae strains = assay: MIC against S. pneumoniae strains (Tables M7, M8); details: Streptococcus pneumoniae
From the text: CLSI standard procedures for broth dilution MIC determination were used. […] These genotypes can be constitutive or inducible.

E. coli strains = assay: MIC against E. coli strains (Table M7); details: Escherichia coli, ATCC25922, E. coli ATCC 25922
Outline: as §1

EC107 E. coli ATCC25922 = assay: broth dilution MIC, E. coli EC107; details: Escherichia coli, read-out: MIC
From the text: as §2

K. pneumoniae strains = assay: MIC against K. pneumoniae strains (Table M8); details: Klebsiella pneumoniae, K. pneumoniae 10031
E. faecalis strains = assay: MIC against E. faecalis strains (Table M8); details: Enterococcus faecalis, E. faecalis 29212
S. aureus strains = assay: MIC against S. aureus strains (Table M7); details: Staphylococcus aureus
Outline: as §1

A. baumannii strains = assay: MIC against A. baumannii strains (Table M8); details: Acinetobacter baumannii, BAA747, A. baumannii BAA747-1
[1] = system: SA101 S. aureus ATCC29213; assay: broth dilution MIC, S. aureus SA101; details: Staphylococcus aureus, ATCC29213, SA101 S. aureus ATCC29213; read-out: MIC
From the text: as §2

[2] = system: BS1723 B. subtilis BS168 WT wild type; assay: broth dilution MIC, B. subtilis BS1723; details: Bacillus subtilis, BS1723 B. subtilis BS168 WT wild type; read-out: MIC
From the text: as §2

Row | Compound | MIC (EC878 E. coli tolC) [µg/mL] | MIC (BS1725 B. subtilis ermC; BS1725 B. subtilis ermC (+ery)) [µg/mL] | MIC (BS1725 B. subtilis ermC; BS1725 B. subtilis ermC (−ery)) [µg/mL] | MIC (EC882 E. coli imp) [µg/mL] | MIC (EC107 E. coli ATCC25922) [µg/mL] | MIC [1] [µg/mL] | MIC [2] [µg/mL] | further results
1 | CC[C@H]1OC(=O)[C@H](C)C(=O)C[C@@H](O[C@@H]2OC(C)CC(N(C)C)C2O)[C@](C)(OC)C[C@@H](C)CN[C@H](C)[C@H]2N(CCCCn3cc(-c4cccc(N)c4)nn3)C(=O)O[C@]12C (stereo partly shown) [FSM-10781] | 1 (≈ 1.23 µM) | > 32 | > 32 | 0.25 (≈ 0.307 µM) | 16 (≈ 19.7 µM) | > 32 | > 32 | MIC (H. influenzae strains; H. influenzae 49247, read-out: MIC H. influenzae (49247)): 1 µg/mL (≈ 1.23 µM); MIC (H. influenzae strains; H. influenzae 49766, read-out: MIC H. influenzae (49766)): 8 µg/mL (≈ 9.83 µM); MIC (S. pneumoniae strains; S. pneumoniae 160, read-out: MIC S. pneumonae (160)): 2 µg/mL (≈ 2.46 µM); MIC (S. pneumoniae strains; S. pneumoniae 1509, read-out: MIC S. pneumoniae (1509)): > 32 µg/mL; MIC (S. pneumoniae strains; S. pneumoniae 1533, read-out: MIC S. pneumoniae (1533)): > 32 µg/mL; MIC (S. pneumoniae strains; S. pneumoniae 1537, read-out: MIC S. pneumoniae (1537)): > 32 µg/mL; MIC (S. pneumoniae strains; S. pneumoniae 49619, read-out: MIC S. pneumoniae (49619)): 8 µg/mL (≈ 9.83 µM); MIC (E. coli strains): 32 µg/mL (≈ 39.3 µM); MIC (K. pneumoniae strains): 8 µg/mL (≈ 9.83 µM); MIC (E. faecalis strains): 8 µg/mL (≈ 9.83 µM); MIC (S. aureus strains; ATCC29213, S. aureus ATCC 29213, read-out: MIC S. aureus (ATCC 29213)): > 32 µg/mL; MIC (S. aureus strains; S. aureus 506, read-out: MIC S. aureus (506)): > 32 µg/mL; MIC (S. aureus strains; S. aureus 1708, read-out: MIC S. aureus (1708)): > 32 µg/mL; MIC (S. aureus strains; USA300, S. aureus USA300, read-out: MIC S. aureus (USA300)): > 32 µg/mL; MIC (A. baumannii strains): 32 µg/mL (≈ 39.3 µM)
2 | CC[C@H]1OC(=O)[C@](C)(F)C(=O)C[C@@H](O[C@@H]2OC(C)CC(N(C)C)C2O)[C@](C)(OC)C[C@@H](C)CN[C@H](C)[C@H]2N(CCCCn3cc(-c4cccc(N)c4)nn3)C(=O)O[C@]12C (stereo partly shown) [FSM-10661] | 16 (≈ 19.2 µM) | > 32 | > 32 | 2 (≈ 2.4 µM) | > 32 | > 32 | > 32 | –
3 | CC[C@H]1OC(=O)[C@H](C)C(=O)C[C@@H](O[C@@H]2OC(C)CC(N(C)C)C2O)[C@](C)(OC)C[C@@H](C)CN[C@H](C)[C@H]2N(CCCCn3cc(-c4ccccn4)nn3)C(=O)O[C@]12C (stereo partly shown) [FSM-10786] | 2 (≈ 2.5 µM) | > 32 | > 32 | 0.25 (≈ 0.312 µM) | > 32 | > 32 | > 32 | –
4 | CC[C@H]1OC(=O)[C@H](C)C(=O)C[C@@H](O[C@@H]2OC(C)CC(N(C)C)C2O)[C@](C)(OC)C[C@@H](C)CN(C(C)=O)[C@H](C)[C@H]2N(CCCCn3cc(-c4ccccn4)nn3)C(=O)O[C@]12C (stereo partly shown) [FSM-10792] | 4 (≈ 4.75 µM) | > 32 | > 32 | 1 (≈ 1.19 µM) | > 32 | > 32 | > 32 | –
5 | CC[C@H]1OC(=O)[C@H](C)C(=O)C[C@@H](O[C@@H]2OC(C)CC(N(C)C)C2O)[C@](C)(OC)C[C@@H](C)CN(C(C)=O)[C@H](C)[C@H]2N(CCCCN=[N+]=[N-])C(=O)O[C@]12C (stereo partly shown) [FSM-10789] | 4 (≈ 5.41 µM) | > 32 | > 32 | 8 (≈ 10.8 µM) | > 32 | > 32 | > 32 | –
6 | CC[C@H]1OC(=O)[C@H](C)C(=O)[C@H](C)[C@@H](O[C@@H]2OC(C)CC(N(C)C)C2O)[C@](C)(OC)C[C@@H](C)CN(C(C)=O)[C@H](C)[C@H]2N(CCCCn3cc(-c4ccccn4)nn3)C(=O)O[C@]12C (stereo partly shown) [FSM-20766] | 4 (≈ 4.67 µM) | > 32 | – | 1 (≈ 1.17 µM) | > 32 | 16 (≈ 18.7 µM) | 32 (≈ 37.4 µM) | –
7 | CC[C@H]1OC(=O)[C@H](C)C(=O)C[C@@H](O[C@@H]2OC(C)CC(N(C)C)C2O)[C@@](C)(OC)C[C@@H](C)CN(C(C)=O)[C@H](C)[C@H]2N(CCCCn3cc(-c4ccccn4)nn3)C(=O)O[C@]12C (stereo partly shown) [FSM-30515] | > 32 | > 32 | > 32 | > 32 | > 32 | > 32 | > 32 | –
8 | CC[C@H]1OC(=O)[C@H](C)C(=O)C[C@@H](O[C@@H]2OC(C)CC(N(C)C)C2O)[C@](C)(OC)C[C@@H](C)CN(C(C)=O)[C@H](C)[C@H]2N(CCCCn3cc(-c4nccs4)nn3)C(=O)O[C@]12C (stereo partly shown) [FSM-10790] | 4 (≈ 4.72 µM) | > 32 | > 32 | 1 (≈ 1.18 µM) | > 32 | > 32 | > 32 | –
